The text below walks through data of patent US20180273507A1, “CRYSTAL FORMS OF A M1 RECEPTOR POSITIVE ALLOSTERIC MODULATOR” (Merck Sharp & Dohme Corp., priority 2015, published 2018).

The series can be described thus: Base catalyzed hydrolysis forced degradation, HPLC monitored. The following applies: basic conditions (0.1 N), 24 hours.

The structures appear in SMILES notation.

Description: The experiment was conducted on a sample stored at room/ambient temperature and another sample maintained at 60° C.

In the case of `Cc1ccc(Cc2cc3c(=O)n([C@H]4CCCC[C@@H]4O)cnc3c3ccccc23)cn1.O=C(O)/C=C/C(=O)O` [3-[(1S,2S)-2-Hydroxycyclohexyl]-6-[(6-methyl-3-pyridinyl)methyl]benzo-[h]quinazolin-4(3H)-one (2E)-2-butenedioate], the “degradation / loss under basic conditions” value (60° C.) worked out at 1.4% and the “degradation / loss under basic conditions” value (ambient temperature) is reported as 0.2%.
